Experimental findings from patent US20200165194A1, “ADDITIVE COMPOSITION FOR CULTURE MEDIUM, ADDITIVE COMPOUND FOR CULTURE MEDIUM, AND METHOD FOR CULTURE OF CELLS OR TISSUE USING SAME” (NISSAN CHEMICAL CORPORATION, priority 2017, published 2020) are described below.

The test system of series [1] is Cercopithecus aethiops kidney epithelium-derived cell line Vero. In words: Animal cell lines, 3D culture, ATP assay (Experimental Example 15). In kind it is cell-based. To be noted: 4 days. An excerpt:
(§1) Various animal cell lines were precultured (single layer culture) as follows in respective media. Chinese hamster ovary-derived cell line CHO-K1 (manufactured by DS PHARMA BIO MEDICAL, 10% fetal bovine serum (FBS, manufactured by Corning)-containing Ham's F-12 medium (manufactured by Fujifilm Wako Pure Chemical Corporation)), Cercopithecus aethiops kidney epithelium-derived cell line Vero (purchased from JCRB cell bank, 5% FBS-containing Medium 199 medium (manufactured by Life Technologies)). The above-mentioned cells in the logarithmic growth phase were washed with PBS, a 0.25 w/v % trypsin-1 mmol/L EDTA (ethylenediaminetetraacetic acid) solution (manufactured by Fujifilm Wako Pure Chemical Corporation) was added, and adherent cells were detached by incubating at 37° C. for 3 min. Each medium was added and the mixture was centrifuged and resuspended in the same medium.
(§2) The aforementioned various animal cells were suspended in respective deacylated gellan gum-containing or not containing media (deacylated gellan gum concentration was 0.02 w/v % in Ham's F-12 medium, 0.015 w/v % in Medium 199 medium), and seeded in a 96 well low attachment U-bottom plate (manufactured by Corning, #4520, deacylated gellan gum-free medium), or a low attachment flat bottom plate (manufactured by Corning, #3474, deacylated gellan gum-containing medium) at a cell concentration of 700-2000 cells/90 μL/well (all 3D culture). […] The amount of each compound solution to be added was […]. As a control, a DMSO solution dissolved in a medium was added (DMSO final concentration 0.1%). […] When compared with the compound non-addition (control), one showing a value of not more than 119% as -, one showing a value of not less than 120% as ◯, and one showing a value of not less than 150% as ⊚ are shown in the twenty-third table and the twenty-fourth table.

Series [2] concerns Chinese hamster ovary-derived cell line CHO-K1. The description is as above. The settings on record: CHO-K1; low attachment flat bottom plate (deacylated gellan gum-containing medium); 5 μM; 4 days. It is filed as cell-based.
Text: as §1, §2

The next series concerns hiPS cell line 253G1. The experiment in a line: Human pluripotent stem cell (hiPS cell), EZSPHERE plate, ATP assay (Experimental Example 13). It is filed as cell-based. To be noted: for relative value (%): hiPS 253G1, EZSPHERE plate, 5 μM, 3 days, RLU of DMSO addition = 100%; for proliferation activity (in words): human pluripotent stem cells under three-dimensional conditions. Here is the method: hiPS cell line 253G1 (purchased from RIKEN) was cultured on a dish coated with vitronectin VTN-N (manufactured by Thermo Fisher Scientific) using mTeSR1 (registered trade mark) medium (manufactured by STEMCELL Technologies). The above-mentioned cells in the proliferation phase were washed with PBS (manufactured by Fujifilm Corporation Wako Pure Chemical Industries, Ltd.), TrypLE Select (registered trade mark) (manufactured by Thermo Fisher Scientific) was added and the mixture was incubated at 37° C. for 3 min to remove the detaching solution. The medium was added and the cells were detached by pipetting. Thereafter, the supernatant was removed by centrifugation.
The aforementioned cells were suspended in a medium containing 10 μM Y-27632 (manufactured by Fujifilm Corporation Wako Pure Chemical Industries, Ltd.) and seeded in a 96-well EZSPHERE plate (manufactured by AGC TECHNO GLASS CO., LTD., #4860-900) at a cell concentration of 10000 cells/200 μL/well. […] The amount of each compound solution to be added was 2 μL/well. As a control, a DMSO solution dissolved in a medium was added (DMSO final concentration 0.05%). The medium was exchanged by half the volume every day, and each compound solution was also added to make the compound concentration constant.

The test system of series [3] is Bone marrow-derived human mesenchymal stem cells (BM-hMSC). The experiment in a line: Cells cultured by hanging drop method, ATP assay (Experimental Example 12). In kind it is cell-based. On the procedure: (§3) Human epithelial-like cell cancer-derived cell line A431 (manufactured by ATCC) was cultured using 10% FBS and 1% MEM non-essential amino acid solution (MEM NEAA, manufactured by Wako Pure Chemical Industries, Ltd.)-containing EMEM (manufactured by Wako Pure Chemical Industries, Ltd.)). In addition, bone marrow-derived human mesenchymal stem cells (BM-hMSC, manufactured by PromoCell) were cultured using a mesenchymal stem cell proliferation medium (manufactured by PromoCell). Each of the above-mentioned cells in the logarithmic growth phase was washed with PBS, a 0.25 w/v % trypsin-1 mmol/L EDTA (ethylenediaminetetraacetic acid) solution (manufactured by Wako Pure Chemical Industries, Ltd.) was added, and the cells were detached by incubating at 37° C. for 3 min. Each medium was added, the mixture was centrifuged, and the supernatant was removed.
(§4) The cell suspension was seeded by 10 μL in 15 drops on the back surface of the lid of a 3.5 cm dish (manufactured by Falcon, #351008) to form droplets. At this time, as a control, a medium supplemented with DMSO (final concentration of DMSO: 0.05%) was seeded by 10 μL in 15 drops. The lid was returned to a 3.5 cm dish added with 2 mL of PBS, and cultured for 2 days in an incubator at 37° C., 5% CO2. The cultured droplets were collected in a 1.5 mL tube, and the medium was added to a final volume of 150 μL.

Series [4] concerns human epithelial-like cell cancer-derived cell line A431. The series is described as above. In kind it is cell-based. On the procedure:
as §3, §4

The test system of a further series is plural animal cell lines. In words: Animal cell lines, summary over the cell lines (Experimental Example 15). In kind it is cell-based. The settings on record: animal cell lines under three-dimensional conditions.
Text: as §1, §2

Series [5] deals with Human umbilical vein endothelial cells. In words: Vascular endothelial cell, 3D culture, ATP assay (Experimental Example 14). It is filed as cell-based. Here is the method:
Human umbilical vein endothelial cells (manufactured by PromoCell) were precultured in Endothelial Cell proliferation Medium (manufactured by PromoCell) medium (single layer culture). The above-mentioned cells in the logarithmic growth phase were washed with PBS, DetachKit (manufactured by PromoCell) was added, and adherent cells were detached by incubating at 37° C. for 3 min. The medium was added and the mixture was centrifuged and resuspended in the same medium.
The aforementioned cells were suspended in respective deacylated gellan gum-containing or not containing media (deacylated gellan gum concentration was 0.015 w/v %), and seeded in a 96 well low attachment U-bottom plate (manufactured by Corning, #4520, deacylated gellan gum-free medium), or a low attachment flat bottom plate (manufactured by Corning, #3474, deacylated gellan gum-containing medium) at a cell concentration of 700-2000 cells/90 μL/well (all 3D culture). […] The amount of each compound solution to be added was 10 μL/well. As a control, a DMSO solution dissolved in a medium was added (DMSO final concentration 0.1%).

Series [6] has as its system SKOV3 cells (human ovarian cancer-derived cell line). In words: Cell proliferation activity in three-dimensional medium FCeM, ATP assay (Experimental Example 1). It is filed as cell-based. To be noted: SKOV3, 3D medium FCeM, compound 5 μM, 4 days; DMSO control = 100%; average of two tests. On the procedure:
A cell proliferation promoting effect when the compound to be used in the present invention was added to a three-dimensional medium was studied. Specifically, precultured (adhesion cultured) SKOV3 cells (human ovarian cancer-derived cell line) were recovered and suspended in a three-dimensional cell culture medium (“FCeM (registered trade mark)” (Nissan chemical corporation)) to prepare a cell suspension. […] The cell suspension seeded in the plate was stood overnight at 37° C., 5% CO2. Then, a DMSO diluted solution (4.44 μL) of the compound to be used in the present invention was added at a final concentration of 5 μM (or two steps of […] and 10 μM) (no stirring after addition). After addition of each compound, the mixtures were stood for 4 days at 37° C., 5% CO2. […] The luminescence intensity (RLU value) was measured by FlexStation3 (manufactured by Molecular Devices), and cell proliferation was evaluated.
The proliferation rate was calculated based on the control (cells added with DMSO without containing the compound to be used in the present invention) as the standard (100%). The values shown in the tables are average values of the results of two tests.

Series [7] deals with human ovarian cancer cell line SKOV3. In words: Action on SKOV3 cell-2: 3D (deacylated gellan gum) and 2D culture, EGF medium, ATP assay (Experimental Example 3). The settings on record: for relative value of RLU (number of viable cells): 4 days, compound non-addition = 100%.
Experimental: According to the method of patent document 1 (WO 2014/017513), a composition of McCoy's 5a medium (manufactured by Sigma-Aldrich) containing 0.015% (w/v) deacylated gellan gum (KELCOGEL CG-LA, manufactured by Sansho Co., Ltd.) and 15% (v/v) FBS, 30 ng/mL human EGF (manufactured by PEPROTECH) was prepared using FCeM-series Preparation Kit (manufactured by Wako Pure Chemical Industries, Ltd.). In a single layer culture, a non-addition medium composition not containing deacylated gellan gum was prepared. Then, human ovarian cancer cell line SKOV3 (manufactured by DS PHARMA BIO MEDICAL) was suspended in the above-mentioned medium composition added with deacylated gellan gum, and dispensed into the wells of a 384 well flat bottom Ultr-low Attachment surface microplate (manufactured by Corning Incorporated, #3827) at 1000 cells/36 μL/well (three-dimensional culture (3D)). In a single layer culture (2D), human ovarian cancer cell line SKOV3 was suspended in the above-mentioned medium composition not containing deacylated gellan gum, and dispensed into the wells of a 384 well flat bottom microplate (manufactured by Corning Incorporated, #3712) at 400 cells/36 μL per well. After dispensing, the compound to be used in the present invention dissolved in dimethyl sulfoxide (DMSO) was added by 4 μL each at a final concentration of 0, 1, 5, 10, 20 μM, and continuously cultured for 4 days. Each plate was cultured in a standing state in a CO2 incubator (37° C., 5% CO2) for 4 days. An ATP reagent (40 μL) (CellTiter-Glo (registered trade mark) Luminescent Cell Viability Assay, manufactured by Promega) was added to the culture medium on day 4, and the mixture was stirred by a plateshaker (manufactured by AS ONE Corporation, Micro plate mixer NS-P) at room temperature for 15 min. The luminescence intensity (RLU value) was measured by EnSpire (manufactured by Perkin Elmer) and the luminescence value of the medium alone was subtracted to measure the number of viable cells.

With `CCC(=NNC(=O)CNc1ccccc1)c1ccc(O)c(C)c1O` [k-1:H-1], the “number of viable cells (RLU), relative value to control (100%)” value is “⊙” in [1] (low attachment U-bottom plate, 5 μM); “⊙” in series [1] (low attachment U-bottom plate, 10 μM); “⊙” in series [1] (low attachment flat bottom plate (deacylated gellan gum-containing medium), 5 μM); “⊙” in series [1] (low attachment flat bottom plate (deacylated gellan gum-containing medium), 10 μM); “◯ (one showing a value of not less than 120% as ◯)” in series [2]. In addition, the “relative value (%)” value with hiPS cell line 253G1 was determined as 166%. The figures for the “proliferation activity (in words)” value (in the series on hiPS cell line 253G1; with plural animal cell lines; in series [5] (human umbilical vein endothelial cells under three-dimensional conditions)) were “promoted proliferation activity in human pluripotent stem cells”, “promoted proliferation activity in plural animal cell lines” and “promoted proliferation activity in human umbilical vein endothelial cells”, respectively. For the same compound, the “cell number (relative value)” value is listed as 186% in [3] (BM-hMSC, hanging drop, 5 μM, 2 days, control = 100%) and 252% in series [4] (A431 cell, hanging drop, 5 μM, 2 days, control = 100%). For the same compound, the “cell number (in words)” value in series [3] (bone marrow-derived human mesenchymal stem cells, hanging drop method) was “showed an effect of increasing the number”; in [4] (A431 cell line, three-dimensional cell culture by the hanging drop method), “showed an effect of increasing the number”. For the same compound, the “relative value of RLU (number of viable cells)” value (“relative value of RLU” below) in series [5] (HUVEC, low attachment U-bottom plate, 5 μM, 4 days, no-addition = 100%) was determined as 820%. The “proliferation rate (%)” value in series [6] was determined as 233.26%.
In the case of `CCC(=NNC(=O)NC(C)c1cccc(O)c1)c1ccc(O)c(C)c1O` (stereo not drawn) [k-1:I-10], the “relative value (%)” value with hiPS cell line 253G1 was found to be 194%. In addition, in the series with hiPS cell line 253G1, the “proliferation activity (in words)” value is listed as “promoted proliferation activity in human pluripotent stem cells”. For the same compound, the “relative value of RLU” value in series [7] (2D single layer culture, 1 μM) amounted to 99%; in [7] (2D single layer culture, 5 μM), 98%; in series [7] (2D single layer culture, 10 μM), 99%; in series [7] (2D single layer culture, 20 μM), 100%; in series [7] (3D culture (deacylated gellan gum), 1 μM) it was 100%; in [7] (3D culture (deacylated gellan gum), 5 μM), 135%. Moreover, the “relative value of RLU” value came to 181% in series [7] (3D culture (deacylated gellan gum), 10 μM) and 197% in series [7] (3D culture (deacylated gellan gum), 20 μM). The “cell proliferation promoting effect (in words)” value in [7] (single layer culture (2D) of SKOV3 cells) is “a favorable cell proliferation promoting effect was not observed”; in series [7] (three-dimensional culture (3D) of SKOV3 cells) it was “exhibited cell proliferation promoting effect at a wide concentration range”.
